Toxic doses and inconclusive results are not listed. The calls were made as follows: active = survival T/C of 150% or more; inactive = T/C below 125% in these data.
System: CD2F1 mice, L1210 leukemia ip, survival T/C
Test: NCI In Vivo Anticancer Drug Screen. Data for tumor model L1210 Leukemia (intraperitoneal) in CD2F1 (CDF1) mice
Conditions: endpoint: mean survival time, higher = longer survival
How it was run: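 Vehicle-treated tumor-bearing mice served as controls (C) for compound-treated mice (T). Reported figure is T divided by C.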

[1] = dose: 100.0 mg/kg/injection, schedule: Q04DX002 (ip), vehicle: Klucel (hydroxypropylcellulose) (HPC)
[2] = dose: 100.0 mg/kg/injection, schedule: Q01DX009 (ip), vehicle: saline with Tween-80
[3] = dose: 100.0 mg/kg/injection, schedule: Q04DX003 (ip), vehicle: saline with Tween-80
[4] = dose: 200.0 mg/kg/injection, schedule: Q01DX009 (ip), vehicle: saline with Tween-80
[5] = dose: 200.0 mg/kg/injection, schedule: Q04DX003 (ip), vehicle: saline with Tween-80
[6] = dose: 400.0 mg/kg/injection, schedule: Q01DX009 (ip), vehicle: saline with Tween-80
[7] = dose: 400.0 mg/kg/injection, schedule: Q04DX003 (ip), vehicle: saline with Tween-80
[8] = dose: 100.0 mg/kg/injection, schedule: Q01DX009 (ip), vehicle: saline
[9] = dose: 200.0 mg/kg/injection, schedule: Q01DX009 (ip), vehicle: saline

Measured: T/C

NC(=S)N/N=C/c1nccn1-c1cccc([N+](=O)[O-])c1
inactive: dose: 25.0 mg/kg/injection, schedule: Q04DX002 (ip), vehicle: Klucel (hydroxypropylcellulose) (HPC) 101 % of control | dose: 50.0 mg/kg/injection, schedule: Q04DX002 (ip), vehicle: Klucel (hydroxypropylcellulose) (HPC) 96 % of control | [1] 104 % of control

CCCS(=O)(=O)Nc1ccc(Nc2c3ccccc3nc3ccccc23)c(OC)c1
inactive: dose: 3.75 mg/kg/injection, schedule: Q01DX009 (ip), vehicle: saline 122 % of control

O=C(/C=C/C(=N\Nc1ccccc1)c1ccccc1)c1ccccc1
inactive: dose: 100.0 mg/kg/injection, schedule: Q01DX001 (ip), vehicle: saline with Tween-80 96 % of control | dose: 200.0 mg/kg/injection, schedule: Q01DX001 (ip), vehicle: saline with Tween-80 94 % of control | dose: 400.0 mg/kg/injection, schedule: Q01DX001 (ip), vehicle: saline with Tween-80 97 % of control

NC(=O)c1ccccc1N=NN(CCF)CCF
inactive: dose: 5.3 mg/kg/injection, schedule: Q04DX003 (ip), vehicle: saline with Tween-80 103 % of control | dose: 8.0 mg/kg/injection, schedule: Q04DX003 (ip), vehicle: saline with Tween-80 100 % of control | dose: 12.0 mg/kg/injection, schedule: Q04DX003 (ip), vehicle: saline with Tween-80 105 % of control

O=C(C1=CCCCC1)c1ccc(-c2ccccc2)cc1
inactive: [2] 102 % of control | [3] 95 % of control | [4] 91 % of control | [5] 95 % of control | [6] 96 % of control | [7] 93 % of control

O=C1CC=C2C3CC4N(CCC45c4cc(O)c(O)cc4N1C25)C/C3=C\CBr (configuration not stated)
inactive: dose: 75.0 mg/kg/injection, schedule: Q01DX001 (ip), vehicle: saline 115 % of control

CC1(C)N=C(N)N=C(N)N1c1cccc(CCC(=O)Nc2ccc(S(=O)(=O)F)cc2)c1
inactive: dose: 50.0 mg/kg/injection, schedule: Q01DX009 (ip), vehicle: saline 100 % of control | [8] 102 % of control | [9] 105 % of control | dose: 300.0 mg/kg/injection, schedule: Q01DX009 (ip), vehicle: saline 105 % of control | dose: 400.0 mg/kg/injection, schedule: Q01DX009 (ip), vehicle: saline 108 % of control

CC1=C2CC3CCC(C)C2(CC1)C3(C)C (configuration not stated)
inactive: [1] 111 % of control | dose: 100.0 mg/kg/injection, schedule: Q04DX003 (ip), vehicle: saline 96 % of control | dose: 200.0 mg/kg/injection, schedule: Q04DX002 (ip), vehicle: Klucel (hydroxypropylcellulose) (HPC) 96 % of control | dose: 200.0 mg/kg/injection, schedule: Q04DX003 (ip), vehicle: saline 98 % of control | dose: 400.0 mg/kg/injection, schedule: Q04DX002 (ip), vehicle: Klucel (hydroxypropylcellulose) (HPC) 96 % of control | dose: 400.0 mg/kg/injection, schedule: Q04DX003 (ip), vehicle: saline 106 % of control

CC1(C)N=C(N)N=C(N)N1c1ccc(OCCCNC(=O)Nc2cccc(S(=O)(=O)F)c2)c(Cl)c1
inactive: [8] 116 % of control | [9] 92 % of control

CC1(C)COC(=O)C(C)(C)C1=O
inactive: dose: 25.0 mg/kg/injection, schedule: Q04DX002 (ip), vehicle: saline with Tween-80 107 % of control | dose: 50.0 mg/kg/injection, schedule: Q04DX002 (ip), vehicle: saline with Tween-80 96 % of control | dose: 100.0 mg/kg/injection, schedule: Q04DX002 (ip), vehicle: saline with Tween-80 96 % of control

CC(=O)N(c1c(F)c(F)cc(F)c1F)c1c(F)c(F)cc(F)c1F
inactive: [2] 95 % of control | [3] 104 % of control | [4] 103 % of control | [5] 102 % of control | [6] 95 % of control | [7] 98 % of control

Nc1nc2nc(-c3ccccc3)c(-c3ccccc3)nc2c(=O)[nH]1
inactive: [2] 96 % of control | [4] 94 % of control | [6] 97 % of control

From PubChem BioAssay AID256 (DTP/NCI, 2004)
